Source: US20070118211A1, “Method for preparing drug eluting medical devices and devices obtained therefrom” (priority 2003, published 2007)

Assay: elution of the drug from coated stents in physiological solution (UV absorbance)
Format: physicochemical
Details: stent with allylamine polymer deposited by cold plasma compared with stent with polymer according to the state of the art (polybutadiene layers); 1 cc physiological solution; absorbance at 261 nm; FIG. 1
Protocol: Next, the stents were immersed in test tubes containing 1 cc of physiological solution and the rate of elution of the drug was measured by acquiring the visible UV spectrum using a Unicam 8700 spectrophotometer and reading off the absorbance at 261 nm. The correlation between absorbance and concentration was established by measuring the absorbance of solutions of known concentration (calibration curve). The drug elution measurements were carried out at fixed time intervals and the physiological solution was changed at each measurement.
10 mg of dexamethasone were dissolved in 1 cc of ethanol and applied as described previously. The elution curves were again measured as described in example 1 and the absorbance at 264.4 nm was read off.

For CS(=O)(=O)O.Cc1ccc(NC(=O)c2ccc(CN3CCN(C)CC3)cc2)cc1Nc1nccc(-c2cccnc2)n1 [hydrophilic drug, 4-[(4-methyl-1-piperazinyl)methyl]-N-[4-methyl-3-[[4-(3-pyridinyl)-2-pyrimidinyl]amino]-phenyl]benzamide methanesulphonate], the “elution of the hydrophilic drug” value was “significantly delays the elution”.
